# Laboratory results published in US20260365642A1, “ANTIPARASITIC COMPOUNDS” (Animol Discovery, Inc., priority 2023, published 2026).
# System: Dirofilaria immitis L1 larvae
# Experiment: Screening against microfilaria (L1 larvae) of Dirofilaria immitis, survival/motility
# Assay type: in vivo
# Conditions: 72 h, read-out: Ranked D. immitis L1 MED Activity
# Procedure: Example 44. Screening of Compounds Against Microfilaria of Dirofilaria immitis
# To evaluate the efficacy of compounds of the disclosure against Dirofilaria immitis, L1 stage larvae were exposed to various concentrations of the compounds to determine survival or paralysis of the larvae. Results are reported as the minimum effective dose (MED), defined as the concentration required to eliminate motility.
# To perform the assay, microfilaria of Dirofilaria immitis were added to the wells of a microtiter plate containing buffer and the test compounds in DMSO. Microfilaria exposed to DMSO alone served as controls. An assessment was conducted at 72 hours to determine survival of the microfilaria.
row,Compound,minimal effective concentration [µM]
1,"CN(CC1CN(S(C)(=O)=O)CCCO1)c1cc(N2CCOC3(CCCCC3)C2)nc(C(F)(F)F)n1 (centres unmarked) [Compound 31, N-methyl-N-((4-(methylsulfonyl)-1,4-oxazepan-2-yl)methyl)-6-(1-oxa-4-azaspiro[5.5]undecan-4-yl)-2-(trifluoromethyl)pyrimidin-4-amine]",< 30000
2,"CN(CC1CN(S(=O)(=O)C2CC2)CCO1)c1cc(N2CCOC3(CCCCC3)C2)nc(C(F)(F)F)n1 (centres unmarked) [Compound 32, N-((4-(cyclopropylsulfonyl)morpholin-2-yl)methyl)-N-methyl-6-(1-oxa-4-azaspiro[5.5]undecan-4-yl)-2-(trifluoromethyl)pyrimidin-4-amine]",< 10000
3,"CCS(=O)(=O)N1CCOC(CN(C)c2cc(N3CCOC4(CCCCC4)C3)nc(C(F)(F)F)n2)C1 (centres unmarked) [Compound 33, N-((4-(ethylsulfonyl)morpholin-2-yl)methyl)-N-methyl-6-(1-oxa-4-azaspiro[5.5]undecan-4-yl)-2-(trifluoromethyl)pyrimidin-4-amine]",< 10000
4,"CS(=O)(=O)N1CCOC2CN(c3cc(N4CCOC5(CCCCC5)C4)nc(C(F)(F)F)n3)CCC21 (centres unmarked) [Compound 34, 4-(6-(1-(methylsulfonyl)octahydro-6H-pyrido[3,4-b][1,4]oxazin-6-yl)-2-(trifluoromethyl)pyrimidin-4-yl)-1-oxa-4-azaspiro[5.5]undecane]",< 30000
5,"CN(CC1CN(S(C)(=O)=O)CCCO1)c1cc(N2CCCC3(CCCCC3)C2)nc(C(F)(F)F)n1 (centres unmarked) [Compound 35, N-methyl-N-((4-(methylsulfonyl)-1,4-oxazepan-2-yl)methyl)-6-(2-azaspiro[5.5]undecan-2-yl)-2-(trifluoromethyl)pyrimidin-4-amine]",< 10000
6,"COC(=O)N1CCCC(CN(C)c2cc(N3CCCC4(CCCCC4)C3)nc(C(F)(F)F)n2)C1 (centres unmarked) [Compound 36, methyl 3-(((6-(2-azaspiro[5.5]undecan-2-yl)-2-(trifluoromethyl)pyrimidin-4-yl)(methyl)amino)methyl)piperidine-1-carboxylate]",> 100000
7,"CS(=O)(=O)N1CCOC(CN(Cc2ccccc2)c2cc(N3CCCC4(CCCCC4)C3)nc(C(F)(F)F)n2)C1 (centres unmarked) [Compound 37, N-benzyl-N-((4-(methylsulfonyl)morpholin-2-yl)methyl)-6-(2-azaspiro[5.5]undecan-2-yl)-2-(trifluoromethyl)pyrimidin-4-amine]",> 100000
8,"CCN(CC1CN(S(C)(=O)=O)CCO1)c1cc(N2CCCC3(CCCCC3)C2)nc(C(F)(F)F)n1 (centres unmarked) [Compound 38, N-ethyl-N-((4-(methylsulfonyl)morpholin-2-yl)methyl)-6-(2-azaspiro[5.5]undecan-2-yl)-2-(trifluoromethyl)pyrimidin-4-amine]",< 30000
9,"CN(C)CCN(CC1CN(S(C)(=O)=O)CCO1)c1cc(N2CCCC3(CCCCC3)C2)nc(C(F)(F)F)n1 (centres unmarked) [Compound 39, N1-(6-(2-azaspiro[5.5]undecan-2-yl)-2-(trifluoromethyl)pyrimidin-4-yl)-N2,N2-dimethyl-N1-((4-(methylsulfonyl)morpholin-2-yl)methyl)ethane-1,2-diamine]",< 10000
10,"CN(CC1CN(S(C)(=O)=O)CCO1)c1cc(N2CCCC3(CCC(F)(F)CC3)C2)nc(C(F)(F)F)n1 (centres unmarked) [Compound 40, 6-(9,9-difluoro-2-azaspiro[5.5]undecan-2-yl)-N-methyl-N-((4-(methylsulfonyl)morpholin-2-yl)methyl)-2-(trifluoromethyl)pyrimidin-4-amine]",< 30000
11,"CN(CC1CN(S(C)(=O)=O)CCC1(F)F)c1cc(N2CCCC3(CCCCC3)C2)nc(C(F)(F)F)n1 (centres unmarked) [Compound 41, N-((4,4-difluoro-1-(methylsulfonyl)piperidin-3-yl)methyl)-N-methyl-6-(2-azaspiro[5.5]undecan-2-yl)-2-(trifluoromethyl)pyrimidin-4-amine]",< 30000
